Data from the supplement of paper PMC10307832.

How the values were obtained:
Test in all cases: relative viability (nuclei count vs DMSO), 5 days (fraction); higher = more cells survive
XMD14-99 + Linsitinib = compound: CN1CCN(CC1)C2=CC(=C(C=C2)NC3=NC(=C(S3)C(=O)C4=C(C=CC=C4Cl)Cl)N)OC [XMD14-99] + C[C@]1(O)C[C@@H](c2nc(-c3ccc4ccc(-c5ccccc5)nc4c3)c3c(N)nccn32)C1 [Linsitinib] (partner 1 µM)
How it was run: (§1)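 Cells from lung cancer lines were seeded into 1536-well plates and, one day later, dosed by pin tool. Treatments were either a single drug or a fixed dose of an anchor drug with five library-drug doses (not always all listed) in √10 steps. After 5 days, nuclei were stained in a one-step fixation (final 0.05% Triton X-100, 1% formaldehyde, 1 ug/ml Hoechst) and counted on 4× images, and relative viability is the treated-to-vehicle nuclei ratio, as the median of duplicate plates.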

AZD1208 + Decitabine = compound: N[C@@H]1CCCN(c2c(/C=C3\SC(=O)NC3=O)cccc2-c2ccccc2)C1 [AZD1208] + Nc1ncn([C@H]2C[C@H](O)[C@@H](CO)O2)c(=O)n1 [Decitabine] (partner 2 µM)
How it was run: as §1

XMD14-99 + Crizotinib = compound: CN1CCN(CC1)C2=CC(=C(C=C2)NC3=NC(=C(S3)C(=O)C4=C(C=CC=C4Cl)Cl)N)OC [XMD14-99] + C[C@@H](Oc1cc(-c2cnn(C3CCNCC3)c2)cnc1N)c1c(Cl)ccc(F)c1Cl [Crizotinib] (partner 1 µM)
How it was run: as §1

AZD1208 + Palbociclib = compound: N[C@@H]1CCCN(c2c(/C=C3\SC(=O)NC3=O)cccc2-c2ccccc2)C1 [AZD1208] + CC(=O)c1c(C)c2cnc(Nc3ccc(N4CCNCC4)cn3)nc2n(C2CCCC2)c1=O [Palbociclib] (partner 0.5 µM)
How it was run: as §1

Row | Cell Line | relative viability (XMD14-99 + Linsitinib; first compound 0.08 µM) | relative viability (XMD14-99 + Linsitinib; first compound 0.8 µM) | relative viability (XMD14-99 + Linsitinib; first compound 2.53 µM) | relative viability (XMD14-99 + Linsitinib; first compound 8 µM) | relative viability (AZD1208 + Decitabine; first compound 0.08 µM) | relative viability (AZD1208 + Decitabine; first compound 0.253 µM) | relative viability (AZD1208 + Decitabine; first compound 0.8 µM) | relative viability (AZD1208 + Decitabine; first compound 2.53 µM) | relative viability (AZD1208 + Decitabine; first compound 8 µM) | relative viability (XMD14-99 + Crizotinib; first compound 0.08 µM) | relative viability (XMD14-99 + Crizotinib; first compound 0.8 µM) | relative viability (XMD14-99 + Crizotinib; first compound 2.53 µM) | relative viability (XMD14-99 + Crizotinib; first compound 8 µM) | relative viability (AZD1208 + Palbociclib; first compound 0.08 µM) | relative viability (AZD1208 + Palbociclib; first compound 0.253 µM) | relative viability (AZD1208 + Palbociclib; first compound 0.8 µM) | relative viability (AZD1208 + Palbociclib; first compound 2.53 µM) | relative viability (AZD1208 + Palbociclib; first compound 8 µM)
1 | COR-L23 | 0.865 | 0.806 | 0.891 | 0.478 | 0.439 | 0.502 | 0.412 | 0.396 | 0.395 | 0.684 | 0.614 | 0.51 | 0.33 | 0.288 | 0.312 | 0.256 | 0.295 | 0.244
2 | COR-L 105 | 0.924 | 0.665 | 0.879 | 0.703 | 0.734 | 0.672 | 0.633 | 0.628 | 0.538 | 0.709 | 0.88 | 0.721 | 0.444 | 0.37 | 0.344 | 0.379 | 0.38 | 0.43
3 | EKVX | 1.01 | 1.05 | 0.993 | 0.81 | 0.286 | 0.356 | 0.327 | 0.351 | 0.344 | 0.976 | 0.808 | 0.898 | 0.741 | 0.383 | 0.41 | 0.336 | 0.332 | 0.419
4 | EMC-BAC-2 | 0.804 | 0.81 | 0.775 | 0.676 | 0.932 | 0.94 | 0.903 | 0.992 | 0.812 | 0.801 | 0.775 | 0.743 | 0.62 | 0.518 | 0.51 | 0.504 | 0.494 | 0.432
5 | EPLC-272H | 1.14 | 1.21 | 1.4 | 1.02 | 0.412 | 0.342 | 0.392 | 0.364 | 0.368 | 0.923 | 0.813 | 1.04 | 0.927 | 0.363 | 0.34 | 0.326 | 0.308 | 0.373
6 | H3255 | 0.999 | 0.871 | 0.765 | 0.694 | 0.689 | 0.714 | 0.56 | 0.589 | 0.523 | 0.831 | 0.64 | 0.757 | 0.597 | 0.299 | 0.307 | 0.333 | 0.314 | 0.326
7 | HARA | 0.901 | 0.946 | 0.701 | 0.605 | 0.767 | 0.578 | 0.486 | 0.536 | 0.545 | 0.994 | 0.938 | 0.864 | 0.646 | 0.268 | 0.258 | 0.246 | 0.291 | 0.261
